The target of one assay is TEAD2 (Homo sapiens (Human), UniProt Q15562).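 Also: TR-FRET competition assay with His-tagged TEAD protein and a biotinylated lipid pocket probe, compound pre-incubated 30 min or 4 h at room temperature, displacement lowers signal.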
The target in a further assay is TEAD1 (Homo sapiens (Human), UniProt P28347). Put plainly: TR-FRET lipid pocket probe competition assay (Lipid HTRF), TEAD1.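 Also: His-tagged TEAD1 with biotinylated probe, detected via Europium anti-His and XL665 streptavidin, probe displacement lowers TR-FRET signal, IC50 from four-parameter nonlinear fit.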 As to conditions: 4 hours pre-incubation; read-out: Lipid HTRF TEAD1 IC50. It counts as binding. Background: Time-resolved FRET reads energy transfer from a long-lived donor to a nearby acceptor.
Chain of TEAD1 (P28347 whole entry, species assumed): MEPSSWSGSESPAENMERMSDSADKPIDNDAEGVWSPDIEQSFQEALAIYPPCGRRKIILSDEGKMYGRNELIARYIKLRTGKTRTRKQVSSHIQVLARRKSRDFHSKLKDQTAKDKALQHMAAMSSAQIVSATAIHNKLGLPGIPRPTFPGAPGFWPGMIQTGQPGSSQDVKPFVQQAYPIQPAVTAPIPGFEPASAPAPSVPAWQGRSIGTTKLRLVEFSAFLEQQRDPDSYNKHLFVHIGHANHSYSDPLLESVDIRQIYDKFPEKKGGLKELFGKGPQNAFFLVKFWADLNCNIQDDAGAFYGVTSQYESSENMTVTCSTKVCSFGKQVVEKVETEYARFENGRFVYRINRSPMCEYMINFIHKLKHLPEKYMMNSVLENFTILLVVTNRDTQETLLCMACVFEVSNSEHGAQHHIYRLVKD
The target of the next assay is TEAD3 (Homo sapiens (Human), UniProt Q99594). Put plainly: TR-FRET lipid pocket probe competition assay (Lipid HTRF), TEAD3. The note with it: 4 hours pre-incubation; read-out: Lipid HTRF TEAD3 IC50. The assay is classed as binding.
Chain of TEAD3 (Q99594 whole entry, species assumed): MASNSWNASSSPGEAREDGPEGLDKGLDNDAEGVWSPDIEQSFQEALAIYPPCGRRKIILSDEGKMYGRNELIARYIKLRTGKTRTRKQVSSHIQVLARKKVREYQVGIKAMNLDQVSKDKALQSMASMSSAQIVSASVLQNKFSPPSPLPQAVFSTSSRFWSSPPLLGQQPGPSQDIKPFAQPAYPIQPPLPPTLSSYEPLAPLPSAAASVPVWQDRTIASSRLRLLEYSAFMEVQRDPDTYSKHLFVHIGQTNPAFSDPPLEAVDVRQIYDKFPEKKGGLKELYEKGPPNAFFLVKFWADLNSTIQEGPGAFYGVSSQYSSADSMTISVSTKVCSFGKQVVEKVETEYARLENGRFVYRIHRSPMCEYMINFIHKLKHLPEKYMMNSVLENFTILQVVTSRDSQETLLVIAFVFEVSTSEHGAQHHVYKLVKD
For a further assay, the target named is TEAD4 (Homo sapiens (Human), UniProt Q15561). Put plainly: TR-FRET lipid pocket probe competition assay (Lipid HTRF), TEAD4.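 Also: His-tagged TEAD4 with biotinylated lipid-pocket probe, read by Europium anti-His and XL665 streptavidin, where probe displacement lowers the TR-FRET signal, IC50 from a four-parameter fit.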 It counts as binding. As to conditions: 4 hours pre-incubation; read-out: Lipid HTRF TEAD4 IC50.
Chain of TEAD4 (Q15561 whole entry, species assumed): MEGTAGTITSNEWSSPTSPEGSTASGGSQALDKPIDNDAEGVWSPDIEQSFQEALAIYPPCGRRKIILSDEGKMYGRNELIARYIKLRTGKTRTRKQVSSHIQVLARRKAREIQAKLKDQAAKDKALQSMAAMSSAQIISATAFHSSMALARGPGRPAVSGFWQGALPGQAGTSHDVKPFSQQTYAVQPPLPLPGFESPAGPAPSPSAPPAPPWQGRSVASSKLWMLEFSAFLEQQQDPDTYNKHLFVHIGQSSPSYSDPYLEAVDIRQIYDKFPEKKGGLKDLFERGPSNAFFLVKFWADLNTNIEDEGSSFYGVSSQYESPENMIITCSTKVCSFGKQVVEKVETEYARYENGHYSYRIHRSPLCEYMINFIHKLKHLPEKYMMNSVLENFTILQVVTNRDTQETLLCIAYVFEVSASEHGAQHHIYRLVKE

This note sets out measurements from patent publication US12110276B2 (Genentech, Inc., priority 2021, dated 2024).

Structures are written as SMILES.

Chain of TEAD2 (Q15562 whole entry, species assumed): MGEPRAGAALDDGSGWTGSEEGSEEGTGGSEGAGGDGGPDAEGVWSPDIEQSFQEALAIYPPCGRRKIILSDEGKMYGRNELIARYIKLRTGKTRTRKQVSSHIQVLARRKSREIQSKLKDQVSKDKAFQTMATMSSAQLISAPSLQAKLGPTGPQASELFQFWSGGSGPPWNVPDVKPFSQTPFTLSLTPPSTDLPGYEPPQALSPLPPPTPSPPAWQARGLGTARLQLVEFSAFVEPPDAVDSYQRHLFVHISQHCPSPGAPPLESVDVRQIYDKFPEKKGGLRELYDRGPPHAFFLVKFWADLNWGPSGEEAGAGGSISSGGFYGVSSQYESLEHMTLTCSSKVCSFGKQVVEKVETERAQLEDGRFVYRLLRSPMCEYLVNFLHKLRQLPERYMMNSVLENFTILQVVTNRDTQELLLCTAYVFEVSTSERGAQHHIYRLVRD
Procedure for TEAD1: (§1) His-tagged TEAD proteins are pre-incubated with TEAD project compounds for 30 minutes or 4 hours at room temperature. Biotinylated lipid pocket probes are then added to the TEAD/Compound mixture and incubated for 60 minutes at room temperature. The lipid pocket probe competes with the test compound for the TEAD lipid pocket until equilibrium is reached. After 60 minutes, Europium labelled anti-His (Perkin Elmer #AD0110) and XL665 labelled streptavidin (CIS Bio 610SAXAC) are added to the TEAD/test compound/lipid pocket mixture and incubated for 30 minutes or 4 hours. […] If a TEAD lipid pocket binder such as binds and displaces the lipid pocket probe, the disruption of the TEAD:probe interaction results in a decrease in TR-FRET signal. The potency of compounds as TEAD lipid pocket binders is determined by IC50 value generated using a non-linear 4 parameter curve fit.
Procedure for TEAD2: His-tagged TEAD proteins are pre-incubated with TEAD project compounds for 30 minutes or 4 hours at room temperature. Biotinylated lipid pocket probes are then added to the TEAD/Compound mixture and incubated for 60 minutes at room temperature. The lipid pocket probe competes with the test compound for the TEAD lipid pocket until equilibrium is reached. After 60 minutes, Europium labelled anti-His (Perkin Elmer #AD0110) and XL665 labelled streptavidin (CIS Bio 610SAXAC) are added to the TEAD/test compound/lipid pocket mixture and incubated for 30 minutes or 4 hours. TR-FRET values are then measured using an EnVision multi-label plate reader (Perkin Elmer Cat #2104-0010A.) If the lipid pocket probe binds to TEAD as expected, a TR-FRET signal results from the proximity of anti-His Eu and XL665. If a TEAD lipid pocket binder such as binds and displaces the lipid pocket probe, the disruption of the TEAD:probe interaction results in a decrease in TR-FRET signal. The potency of compounds as TEAD lipid pocket binders is determined by IC50 value generated using a non-linear 4 parameter curve fit.
Procedure for TEAD3: as §1

On to `C=CC(=O)NCc1nn(-c2ccc(OC(F)(F)F)cc2)c2nccc(N3CC([C@@H](C)O)C3)c12` (stereo in doubt) [Compound 123, N-((4-(3-(1-hydroxyethyl)azetidin-1-yl)-1-(4-(trifluoromethoxy)phenyl)-1H-pyrazolo[3,4-b]pyridin-3-yl)methyl)acrylamide], for which half-maximal inhibition against TEAD2 (IC50) was put at 180 nM.

`C=CC(=O)NCc1nn(-c2ccc(OC(F)(F)F)cc2)c2nccc(N3CC([C@H](C)O)C3)c12` (stereo in doubt) [Compound 138, N-((4-(3-(1-hydroxyethyl)azetidin-1-yl)-1-(4-(trifluoromethoxy)phenyl)-1H-pyrazolo[3,4-b]pyridin-3-yl)methyl)acrylamide]: at TEAD2, the midpoint of inhibition, the IC50, lay at 290 nM.

Turning to `C=C(C)C(=O)N1CC(c2nn(-c3ccc(OC(F)(F)F)cc3)c3nccc(CO)c23)C1` [Compound 22, 1-(3-(4-(Hydroxymethyl)-1-(4-(trifluoromethoxy)phenyl)-1H-pyrazolo[3,4-b]pyridin-3-yl)azetidin-1-yl)-2-methylprop-2-en-1-one], the results for the IC50 on TEAD2, on TEAD1 and on TEAD3 were 250 nM, 33 nM and 300 nM, respectively.

Consider `C/C=C/C(=O)NCc1nn(-c2ccc(OC(F)(F)F)cc2)c2nccc(CO)c12` [Compound 61, (E)-N-((4-(Hydroxymethyl)-1-(4-(trifluoromethoxy)phenyl)-1H-pyrazolo[3,4-b]pyridin-3-yl)methyl)but-2-enamide], for which the values for the IC50 against TEAD2 and on TEAD3 were 2300 nM and 50000 nM, respectively.

For the compound `O=C(C1=CCC1)N1CC(c2nn(-c3ccc(OC(F)(F)F)cc3)c3nccc([C@H](O)CO)c23)C1` [Compound 72, (S)-Cyclobut-1-en-1-yl(3-(4-(1,2-dihydroxyethyl)-1-(4-(trifluoromethoxy)phenyl)-1H-pyrazolo[3,4-b]pyridin-3-yl)azetidin-1-yl)methanone], the IC50 (commonly the concentration at which inhibition is half-maximal) turned out to be 7.5 nM against TEAD2 and 19 nM at TEAD3.

On to `C=CC(=O)NCc1nn(-c2ccc(OC(F)(F)F)cc2)c2nccc(N(C)[C@H]3C[C@H](O)C3)c12` [Compound 90, N-((4-((3-hydroxycyclobutyl)(methyl)amino)-1-(4-(trifluoromethoxy)phenyl)-1H-pyrazolo[3,4-b]pyridin-3-yl)methyl)acrylamide], for which the IC50 on TEAD4 stood at 9.9 nM; on TEAD3, 3700 nM.

Consider `O=C(/C=C/CO)N1CC(c2nn(-c3ccc(OC(F)(F)F)cc3)c3nccc(CO)c23)C1` [Compound 94, (E)-4-Hydroxy-1-(3-(4-(hydroxymethyl)-1-(4-(trifluoromethoxy)phenyl)-1H-pyrazolo[3,4-b]pyridin-3-yl)azetidin-1-yl)but-2-en-1-one], for which the IC50 stood at 29 nM against TEAD2 and 15 nM on TEAD1.

`O=C(/C=C/CO)N1CC(c2nn(-c3ccc(OC(F)(F)F)cc3)c3nccc([C@@H](O)CO)c23)C1` [Compound 95, (R,E)-1-(3-(4-(1,2-dihydroxyethyl)-1-(4-(trifluoromethoxy)phenyl)-1H-pyrazolo[3,4-b]pyridin-3-yl)azetidin-1-yl)-4-hydroxybut-2-en-1-one]: the figures for the IC50 at TEAD2 and on TEAD3 were 27 nM and 92 nM, respectively.

With `CC#CC(=O)NCc1nn(-c2ccc(OC(F)(F)F)cc2)c2nccc(CO)c12` [Compound 98, N-((4-(Hydroxymethyl)-1-(4-(trifluoromethoxy)phenyl)-1H-pyrazolo[3,4-b]pyridin-3-yl)methyl)but-2-ynamide], the IC50 was 75 nM on TEAD2, 32 nM on TEAD1 and 460 nM on TEAD3.

For `O=C(/C=C/CO)N1CC(c2nn(-c3ccc(OC(F)(F)F)cc3)c3nccc([C@H](O)CO)c23)C1` [Compound 108, (S,E)-1-(3-(4-(1,2-Dihydroxyethyl)-1-(4-(trifluoromethoxy)phenyl)-1H-pyrazolo[3,4-b]pyridin-3-yl)azetidin-1-yl)-4-hydroxybut-2-en-1-one], the values for the IC50 at TEAD2 and at TEAD3 were 120 nM and 140 nM, respectively.

For `O=C(C1=CCC1)N1CC(c2nn(-c3ccc(OC(F)(F)F)cc3)c3nccc([C@@H](O)CO)c23)C1` [Compound 115, (R)-cyclobut-1-en-1-yl(3-(4-(1,2-dihydroxyethyl)-1-(4-(trifluoromethoxy)phenyl)-1H-pyrazolo[3,4-b]pyridin-3-yl)azetidin-1-yl)methanone], the IC50 turned out to be 6 nM at TEAD2 and 11 nM at TEAD3.

For `C=CC(=O)NCc1nn(-c2ccc(OC(F)(F)F)cc2)c2nccc(N(C)[C@H]3C[C@@H](O)C3)c12` [Compound 117, N-((4-((3-hydroxycyclobutyl)(methyl)amino)-1-(4-(trifluoromethoxy)phenyl)-1H-pyrazolo[3,4-b]pyridin-3-yl)methyl)acrylamide], the values for the IC50 on TEAD4 and on TEAD3 were 33 nM and 16000 nM, respectively.

In the case of `O=C(/C=C/CF)NCc1nn(-c2ccc(OC(F)(F)F)cc2)c2nccc(CO)c12` [Compound 121, (E)-4-Fluoro-N-((4-(hydroxymethyl)-1-(4-(trifluoromethoxy)phenyl)-1H-pyrazolo[3,4-b]pyridin-3-yl)methyl)but-2-enamide], the IC50 is 68 nM against TEAD2, 21 nM on TEAD1 and 350 nM on TEAD3.

Regarding `C=CC(=O)NCc1nn(-c2ccc(OC(F)(F)F)cc2)c2nccc([C@H](O)COP(=O)(O)O)c12` [Compound 147, (S)-2-(3-(Acrylamidomethyl)-1-(4-(trifluoromethoxy)phenyl)-1H-pyrazolo[3,4-b]pyridin-4-yl)-2-hydroxyethyl dihydrogen phosphate], the IC50 at TEAD4 was determined as 36000 nM.

Consider `O=C(NCc1nn(-c2ccc(OC(F)(F)F)cc2)c2nccc(CO)c12)C1=CCOC1` [Compound 149, N-((4-(Hydroxymethyl)-1-(4-(trifluoromethoxy)phenyl)-1H-pyrazolo[3,4-b]pyridin-3-yl)methyl)-2,5-dihydrofuran-3-carboxamide], for which the IC50 at TEAD1 came to 910 nM.

Regarding `O=C(N1CC(c2nn(-c3ccc(OC(F)(F)F)cc3)c3nccc(CO)c23)C1)C12CC1C2` (stereo not drawn) [Compound 153, Bicyclo[1.1.0]butan-1-yl(3-(4-(hydroxymethyl)-1-(4-(trifluoromethoxy)phenyl)-1H-pyrazolo[3,4-b]pyridin-3-yl)azetidin-1-yl)methanone], the IC50 on TEAD2 was found to be 290 nM; on TEAD1 it was 580 nM; on TEAD3, 50000 nM.

Turning to `O=C(C1=CCC1)N1CC(c2nn(-c3ccc(OC(F)(F)F)cc3)c3nccc([C@@H](O)CO)c23)C1` [Compound 157, (R)-Cyclobut-1-en-1-yl(3-(4-(1,2-dihydroxyethyl)-1-(4-(trifluoromethoxy)phenyl)-1H-pyrazolo[3,4-b]pyridin-3-yl)azetidin-1-yl)methanone], the IC50 came out at 5.7 nM at TEAD2 and 17 nM on TEAD3.

For `C/C=C/S(=O)(=O)N1CC(c2nn(-c3ccc(OC(F)(F)F)cc3)c3nccc([C@H](O)CO)c23)C1` [Compound 161, (S,E)-1-(3-(1-(Prop-1-en-1-ylsulfonyl)azetidin-3-yl)-1-(4-(trifluoromethoxy)phenyl)-1H-pyrazolo[3,4-b]pyridin-4-yl)ethane-1,2-diol], the IC50 against TEAD2 worked out at 3.4 nM.

On to `C/C=C/S(=O)(=O)N1CC(c2nn(-c3ccc(OC(F)(F)F)cc3)c3nccc([C@@H](O)CO)c23)C1` [Compound 162, (R,E)-1-(3-(1-(prop-1-en-1-ylsulfonyl)azetidin-3-yl)-1-(4-(trifluoromethoxy)phenyl)-1H-pyrazolo[3,4-b]pyridin-4-yl)ethane-1,2-diol], for which the IC50 against TEAD2 was found to be 10 nM.
